Results published in ChEMBL document CHEMBL1201862, “PubChem BioAssay data set” (2004).
Activity calls are given as the source filed them.

Tests used:
[1] = molecular target: Cytochrome P450 3A4 (Homo sapiens, UniProt P08684);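 also: CYP3A4 tested as one member of a cytochrome P450 panel screen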
[2] = test system: H9c2; test: cells; format: functional, cell-based; details: Rattus norvegicus, H9c2, Myocardium;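 also: confirmatory concentration-response retest of ultra-high-throughput screening hits for modulation of myocardial damage; cell death induced by hydrogen peroxide oxidative stress; compound pretreatment for 60 min then peroxide exposure for 2 h; potency is for protecting the cells against peroxide damage rather than for killing them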
[3] = molecular target: T1, Corticotropin-releasing factor receptor 2/Corticotropin-releasing factor-binding protein (Homo sapiens, UniProt P24387+Q13324); test: activators of CRF receptor 2 with binding protein – uHTS hits, confirmation (AID 602473); format: functional; details: read-out: EC50_Mean
T1 sequence (Q13324 whole entry): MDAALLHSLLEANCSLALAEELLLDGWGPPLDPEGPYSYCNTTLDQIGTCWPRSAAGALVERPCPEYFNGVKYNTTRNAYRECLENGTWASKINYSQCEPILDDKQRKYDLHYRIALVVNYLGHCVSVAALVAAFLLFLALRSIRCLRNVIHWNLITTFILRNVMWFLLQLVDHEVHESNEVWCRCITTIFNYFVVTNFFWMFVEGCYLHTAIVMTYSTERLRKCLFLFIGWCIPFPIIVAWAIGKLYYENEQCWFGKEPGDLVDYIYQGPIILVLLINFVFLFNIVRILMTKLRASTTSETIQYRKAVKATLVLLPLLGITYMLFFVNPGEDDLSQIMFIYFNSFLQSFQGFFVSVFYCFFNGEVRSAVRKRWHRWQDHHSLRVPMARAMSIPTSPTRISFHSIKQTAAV
T1 sequence (P24387 whole entry): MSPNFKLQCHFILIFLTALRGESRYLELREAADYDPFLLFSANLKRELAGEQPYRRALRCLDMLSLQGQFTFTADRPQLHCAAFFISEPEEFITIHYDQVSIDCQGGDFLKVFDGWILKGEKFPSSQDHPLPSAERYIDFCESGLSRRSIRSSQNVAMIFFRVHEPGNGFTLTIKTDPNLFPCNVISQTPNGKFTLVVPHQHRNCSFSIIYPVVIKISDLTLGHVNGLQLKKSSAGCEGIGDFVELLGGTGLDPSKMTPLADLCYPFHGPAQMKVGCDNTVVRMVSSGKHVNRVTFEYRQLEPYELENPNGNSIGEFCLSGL

[4] = molecular target: T2, Cytochrome P450 1A2 (Homo sapiens, UniProt P05177);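 also: PubChem cytochrome P450 panel assay, CYP1A2 panel member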
T2 sequence (P05177 whole entry): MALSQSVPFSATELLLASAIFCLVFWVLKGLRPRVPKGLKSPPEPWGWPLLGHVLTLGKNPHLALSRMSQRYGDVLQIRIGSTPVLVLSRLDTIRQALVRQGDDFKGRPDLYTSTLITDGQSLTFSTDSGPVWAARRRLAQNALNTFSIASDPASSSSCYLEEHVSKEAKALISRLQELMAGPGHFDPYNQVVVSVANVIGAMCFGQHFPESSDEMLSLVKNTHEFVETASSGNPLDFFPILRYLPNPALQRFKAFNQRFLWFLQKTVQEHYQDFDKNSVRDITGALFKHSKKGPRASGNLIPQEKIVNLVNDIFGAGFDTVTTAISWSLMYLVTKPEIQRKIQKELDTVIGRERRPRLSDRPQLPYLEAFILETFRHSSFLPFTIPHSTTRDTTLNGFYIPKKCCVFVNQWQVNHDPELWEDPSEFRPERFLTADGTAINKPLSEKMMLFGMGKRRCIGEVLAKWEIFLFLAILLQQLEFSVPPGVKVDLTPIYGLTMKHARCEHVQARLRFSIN

[5] = inhibitors of intracellular T. cruzi replication, confirmation, NIH3T3 host cells, beta-gal luminescence (AID 2044); format: functional, cell-based;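 also: intracellular parasites grown in NIH/3T3 mouse fibroblasts as host cells; luminescent beta-galactosidase reporter signal from transgenic T. cruzi replicating inside host cells; inhibitors lower the luminescence signal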
[6] = cytotoxicity toward NIH3T3 fibroblasts, dose response, counter-screen, cell-based, ATP luminescence, mouse fibroblasts (AID 2010); format: functional;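 also: cells exposed to compound for about 90 hours before reading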
[7] = HEp-2 cell cytotoxicity, dose response, cytotoxicity control for RSV inhibitor project, HTS (AID 2410); format: functional; details: human respiratory syncytial virus
[8] = growth suppression of PTEN-null colon cells, dose response, cell-based, HCT116 PTEN knockout (AID 1047); format: functional;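 also: HCT116 colon tumor cells with PTEN knocked out; cells exposed to compound for 60 hours before readout; potency for loss of cell viability measured by luminescence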
[9] = growth suppression of beta-catenin-knockout colon cells, dose response, cell-based, HCT116, human colon tumor (AID 1045); format: functional;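 also: HCT116 colon tumor cells with beta catenin knocked out; cells exposed to compound for 60 hours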
[10] = test system: Streptococcus; test: Group A Streptococcus viability loss, dose response, counter-screen for streptokinase expression inhibitor project, luminescence, BacTiterGlo (AID 1915); format: functional, organism-based;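 also: potency for reduction of bacterial viability or growth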
[11] = test system: Streptococcus sp. 'group A'; test: growth inhibition of control SK(-) GAS strain, dose response, counter-screen for streptokinase expression inhibitor project, luminescence, kanamycin, BacTiterGlo, confirmation (AID 1900); format: functional, organism-based
[12] = test system: H4; test: Luminescence Cell-Based Dose Response HTS to Identify Activators of 5'UTR Stem-Loop Driven Prion Protein mRNA Translation in H4 Neuroglioblastoma Cells. [Related pubchem assays: 1829 (Project Summary), 1814 (Primary HTS)]; format: functional; details: Homo sapiens
[13] = Luminescence Cell-Based Dose Response HTS to Identify Activators of Luciferase Translation or Activity in H4 […] Cells. [Related pubchem assays: 1829 (Project Summary), 1814 (Primary HTS)]; format: functional

Chain of Cytochrome P450 3A4 (P08684 whole entry): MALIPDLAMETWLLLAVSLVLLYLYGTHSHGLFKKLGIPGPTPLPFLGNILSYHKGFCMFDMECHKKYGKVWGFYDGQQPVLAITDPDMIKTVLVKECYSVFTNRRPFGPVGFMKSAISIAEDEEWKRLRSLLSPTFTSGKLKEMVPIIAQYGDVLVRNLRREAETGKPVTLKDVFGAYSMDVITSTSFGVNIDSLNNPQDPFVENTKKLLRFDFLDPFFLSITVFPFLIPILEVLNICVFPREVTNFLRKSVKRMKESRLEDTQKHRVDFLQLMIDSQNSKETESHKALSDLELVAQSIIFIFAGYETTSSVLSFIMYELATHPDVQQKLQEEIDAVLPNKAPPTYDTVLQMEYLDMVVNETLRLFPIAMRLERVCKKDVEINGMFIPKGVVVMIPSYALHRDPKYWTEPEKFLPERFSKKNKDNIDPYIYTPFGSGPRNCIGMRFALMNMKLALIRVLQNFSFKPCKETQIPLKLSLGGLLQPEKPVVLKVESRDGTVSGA

## C[C@]12CC[C@H](O)C[C@@H]1CC[C@H]1[C@H]2CC[C@]2(C)[C@H](C(=O)CO)CC[C@@H]12
[1]
  AC50: 1 µM (inconclusive)

## Cn1c(C(=O)NCc2cccs2)cc2c(=O)n(C)c3ccccc3c21
[2]
  IC50: > 79 µM (inactive)

## Cc1cc(O)n2nc(Nc3cccc(Cl)c3)nc2n1
[3]
  EC50: > 53 µM (inactive)

## NS(=O)(=O)c1ccc(/N=N\c2nc3c(S)ncnc3[nH]2)cc1
[4]
  AC50: 6.31 µM (inconclusive)

## Cc1ncc(C/N=C\c2ccc(Cl)cc2)c(N)n1
[4]
  AC50: 5.01 µM (inconclusive)

## N#CC1=C(N)Oc2c(c(=O)sc3ccccc23)C1c1cccnc1 (configuration not stated)
[5]
  EC50: 0.536 µM (active)
[6]
  EC50: 8.85 µM (active)

## Nc1nc2nc(-c3ccccc3)cc(C(F)(F)F)c2s1
[7]
  CC50: 35.5 µM (active)

## CN1/C(=C\C=C(/C#N)C(=O)Nc2ccccc2F)C(C)(C)c2ccccc21
[3]
  EC50: 5.05 µM (active)

## CS(=O)(=O)Nc1ccc(-c2ccc3nccn3c2)cc1
[2]
  IC50: > 79 µM (inactive)

## O=C(Nc1ccc(Cl)cc1)N1CCCN(Cc2ccc(F)cc2)C1
[8]
  EC50: 17.2 µM (active)
[9]
  EC50: 16.4 µM (active)

## CCCn1c(C(C)Nc2nc(-c3ccc(C)cc3)cs2)nc2ccccc21 (configuration not stated)
[7]
  CC50: 15.2 µM (active)

## Cc1c(NC(=O)c2cc3c(s2)-c2ccccc2OC3)cccc1[N+](=O)[O-]
[7]
  CC50: 6.43 µM (active)

## Cc1cccc(N2CCN(c3nc4ccc(Cl)cc4n4cnnc34)CC2)c1C
[8]
  EC50: 19.1 µM (active)
[9]
  EC50: 20 µM (active)

## COC(=O)c1sccc1NC(=O)/C=C/c1ccc(Cl)cc1Cl
[8]
  EC50: 13.8 µM (active)
[9]
  EC50: 51.4 µM (active)

## O=[N+]([O-])c1cc([N+](=O)[O-])c2[nH]nc(-c3ccccc3)c2c1
[5]
  EC50: 1.47 µM (active)
[6]
  EC50: > 60 µM (not active)

## S=C(NC1CCCCC1)N1CCn2cccc2C1c1cccnc1 (configuration not stated)
[5]
  EC50: 0.379 µM (active)
[6]
  EC50: > 60 µM (not active)

## CCOc1ccccc1C(=O)Nc1cccc2cccnc12
[7]
  CC50: 30.4 µM (active)

## COc1cc(/C=C(\C#N)c2nc3ccccc3s2)ccc1OCC(=O)Nc1ccccc1
[8]
  EC50: 25.2 µM (active)
[9]
  EC50: 560 µM (active)

## CN(C)CCCNc1c2c(nc3cc(-c4cccc(F)c4)nn13)CCC2
[5]
  EC50: 0.181 µM (active)
[6]
  EC50: > 60 µM (not active)

## O=c1[nH]c(=O)n(-c2ccccc2)c2c1C(C(F)(F)F)(C(F)(F)F)NC(CCC1CCCCC1)=N2
[3]
  EC50: 7.07 µM (active)

## O=C(Nc1ccc2nn(-c3ccccc3)nc2c1)c1cccnc1
[7]
  CC50: > 50 µM (active)

## COc1ccccc1OCCCn1cc(C=O)c2ccccc21
[7]
  CC50: 8.95 µM (active)

## [O-][n+]1c(CN2CCCCC2)nc2cccc3c2c1-c1ccccc1-3
[1]
  AC50: 3.16 µM (inconclusive)

## Cc1ccc(NC(=O)N(Cc2ccco2)Cc2cc3cc(C)cc(C)c3nc2Cl)cc1
[5]
  EC50: 2.78 µM (active)
[6]
  EC50: > 30 µM (not active)

## COc1cccc(-c2nnc(Nc3nc4c(F)cccc4s3)o2)c1
[10]
  EC50: 26.2 µM (active)
[11]
  EC50: 0.767 µM (active)

## COc1ccccc1NS(=O)(=O)c1cc(NC(=O)c2cccs2)ccc1N1CCCCC1
[5]
  EC50: 1.23 µM (active)
[6]
  EC50: > 30 µM (not active)

## CCSc1nnc2nc3c(c(O)n12)C1(CCCC1)Cc1ccccc1-3
[10]
  EC50: 8.43 µM (active)
[11]
  EC50: 8.43 µM (active)

## O=C(CCCN1C(=O)/C(=C/c2ccccc2Cl)SC1=S)N1CCCC1
[7]
  CC50: 15.5 µM (active)

## COc1ccc(-c2oc(/N=C/N3CCCC3)c(C#N)c2-c2ccc(OC)cc2)cc1
[5]
  EC50: 1.75 µM (active)
[6]
  EC50: > 60 µM (not active)

## O=C(O)c1[nH]c2c([N+](=O)[O-])cc([N+](=O)[O-])cc2c1C(=O)O
[4]
  AC50: 0.126 µM (inconclusive)

## Cc1nc2nc(-c3ccccc3)nn2c(C)c1C
[7]
  CC50: 39.4 µM (active)

## C[C@@H](C(=O)Nc1ccc2ccccc2c1)[C@H]1C[C@]1(C)[C@H](NS(=O)(=O)c1ccc(-c2ccccc2)cc1)c1ccccc1
[4]
  AC50: 15.8 µM (inconclusive)

## O=C(c1ccc(COc2ccccc2Cl)o1)N1CCN(c2ccccc2)CC1
[7]
  CC50: 13.4 µM (active)

## COc1ccc(CCNC(=O)COc2ccc(S(=O)(=O)NC3CCCCC3)cc2Cl)cc1
[4]
  AC50: 25.1 µM (inconclusive)

## NNC(=O)CNc1cccc(Br)c1
[1]
  AC50: 2.51 µM (inconclusive)

## COc1ccc2c(c1)OC[C@H]1[C@H]2N2C(=O)CN(Cc3ccc(F)cc3)C(=O)[C@@]2(C)[C@H]1c1ccccc1
[7]
  CC50: 16.4 µM (active)

## FC(F)(F)c1ccc2c(c1)nc(S)n2C1CC1
[7]
  CC50: 34.1 µM (active)

## COc1ccc(Cl)cc1NC(=O)CSc1nnc(Cc2cccn2C)n1-c1ccc(F)cc1
[8]
  EC50: 80.8 µM (active)
[9]
  EC50: 72.9 µM (active)

## COc1ccc2[nH]cc(C(=O)CN3CCCCC3)c2c1
[3]
  EC50: > 53 µM (inactive)

## COc1ccc(/C=N\NC(=O)O)cc1
[4]
  AC50: 0.501 µM (inconclusive)

## CCn1cc(C(=O)NCc2ccc3c(c2)OCO3)c(=O)c2cc(F)c(N3CCN(C)CC3)cc21
[5]
  EC50: 1.16 µM (active)
[6]
  EC50: > 60 µM (not active)

## COc1ccc(-c2nc3cnc(N(C)C)nc3n(C[C@H]3CCCO3)c2=O)cc1
[1]
  AC50: 6.31 µM (inconclusive)

## CN1CCN(c2ccc(-c3ccnn3C(=O)Nc3cccc(C(F)(F)F)c3)cc2)CC1
[12]
  EC50: 5.98 µM (active)
[13]
  EC50: 3.08 µM (active)

## C[C@@H](C1=C(CCN(C)C)Cc2ccccc21)c1ccccn1
[4]
  AC50: 20 µM (inconclusive)

## O=C(CCn1c(=S)[nH]c2ccccc2c1=O)NCCCN1CCOCC1
[1]
  AC50: 7.08 µM (inconclusive)

## O=C(Nc1ccc(N2CCN(C(=O)c3ccc(Cl)cc3)CC2)cc1)c1ccc(Br)o1
[5]
  EC50: 4.09 µM (active)
[6]
  EC50: > 60 µM (not active)

## O=C(NCCNc1ccc([N+](=O)[O-])cc1)c1ccccc1Br
[1]
  AC50: 28.2 µM (inconclusive)

## Cc1cccc(Nc2nc(N3CCOCC3)nc(N3CCOCC3)n2)c1
[5]
  EC50: 0.465 µM (active)
[6]
  EC50: 5.8 µM (active)

## CSCCC(NC(=O)c1ccco1)C(=O)OCc1cc([N+](=O)[O-])cc2c1OCOC2 (configuration not stated)
[3]
  EC50: 6.29 µM (active)

## Cc1c(/C=N\NC(=O)C2COc3ccc(C(C)(C)C)cc3O2)c2ccccc2n1C (configuration not stated)
[5]
  EC50: 2.25 µM (active)
[6]
  EC50: > 60 µM (not active)

## N=c1c2c(-c3ccccc3)c(-c3ccccc3)n(Cc3ccco3)c2ncn1CCN1CCOCC1
[8]
  EC50: 7.92 µM (active)
[9]
  EC50: 8.19 µM (active)
[5]
  EC50: 1.53 µM (active)
[6]
  EC50: > 60 µM (not active)

## CCOc1ccc(CN2CCN(Cc3nc(C(C)C)cs3)CC2CCO)cc1 (configuration not stated)
[5]
  EC50: 0.845 µM (active)
[6]
  EC50: > 60 µM (not active)

## CC(C)(C)C(=O)Cn1c(=N)n(Cc2ccccc2Cl)c2ccccc21
[5]
  EC50: 2.39 µM (active)
[6]
  EC50: > 60 µM (not active)

## COc1ccc(OC)c(C(=O)CSc2nnc(Cc3cccs3)n2CCc2ccccc2)c1
[4]
  AC50: 7.08 µM (inconclusive)
[1]
  AC50: 39.8 µM (inconclusive)

## COc1ccc(-n2c(=O)c(-c3ccc(F)cc3)nc3cnc(OC)nc32)cc1
[1]
  AC50: 15.8 µM (inconclusive)

## CCc1cccc2cc3c(N)c(C(=O)Nc4ccc(S(=O)(=O)N5CCCC5)cc4)sc3nc12
[7]
  CC50: 38 µM (active)

## Oc1nc(-c2ccccc2)n(-c2ccc(Cl)cc2)n1
[3]
  EC50: > 53 µM (inactive)
